Measurements as given in patent US11084824B2, “Pyrazolopyrimidine derivatives, preparation method thereof, and pharmaceutical composition for use in preventing or treating cancer, autoimmune disease and brain disease containing the same as an active ingredient” (Korea Research Institute of Chemical Technology, priority 2017, dated 2021).

How the values were obtained:
[1] = biological target: Bruton's tyrosine kinase (BTK) (Homo sapiens (Human), UniProt Q06187); experiment: BTK enzyme inhibition assay (Cisbio HTRF kit); assay type: biochemical; conditions: 30 minutes reaction, fluorescence 665 nm/620 nm
Chain of Bruton's tyrosine kinase (BTK) (Q06187 whole entry): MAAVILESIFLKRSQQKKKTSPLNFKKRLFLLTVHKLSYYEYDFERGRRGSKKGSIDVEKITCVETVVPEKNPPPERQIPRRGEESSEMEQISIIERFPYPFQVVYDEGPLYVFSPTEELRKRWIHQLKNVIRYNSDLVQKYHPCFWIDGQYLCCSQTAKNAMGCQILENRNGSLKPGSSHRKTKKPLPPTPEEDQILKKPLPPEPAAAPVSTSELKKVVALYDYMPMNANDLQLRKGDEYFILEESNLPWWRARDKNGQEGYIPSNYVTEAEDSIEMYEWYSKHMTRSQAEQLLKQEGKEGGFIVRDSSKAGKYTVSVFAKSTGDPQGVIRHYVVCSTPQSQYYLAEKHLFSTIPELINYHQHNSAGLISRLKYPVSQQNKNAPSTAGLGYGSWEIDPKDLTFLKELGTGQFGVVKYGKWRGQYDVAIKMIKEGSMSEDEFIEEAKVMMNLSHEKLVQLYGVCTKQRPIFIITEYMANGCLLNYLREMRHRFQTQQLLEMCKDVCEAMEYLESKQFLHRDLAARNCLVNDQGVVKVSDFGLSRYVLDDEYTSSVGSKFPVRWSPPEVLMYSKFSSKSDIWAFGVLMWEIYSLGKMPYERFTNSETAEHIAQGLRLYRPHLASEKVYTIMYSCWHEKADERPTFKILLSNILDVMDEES
Experimental: BTK enzyme evaluation with each compound of examples of the invention was performed by using BTK enzyme inhibition diagnosis kit (Cisbio, Codolet, France). […] Then, EDTA (ethylenediaminetetraacetic acid) was added thereto in order to terminate the reaction. At this time, the EDTA solution contained curopium-containing antibody (antiphosphoresidue antibody) and straptavidin-XL665 (SA-XL665, Cisbio). After incubation for 1 hour, fluorescence was measured. The emission values of 665 nm and 620 nm excited at 337 nm were measured with Envision reader. IC50 values were determined using GraphPad prism (version 5). Herein, the curve indicates a nonlinear regression model, which was determined by logarithmic functions and reaction values.

TMD8 cells = experiment: TMD8 cell growth inhibition (WST-1, 72 hours); assay type: cell-based; conditions: Homo sapiens, TMD8 ABC type DLBCL cell line, WST-1, absorbance 450 nm
Experimental: TDM-8 cells, the ABC (activated B-cell) type DLBCL (diffuse large B cell lymphoma) cell line sensitive to BTK signaling, were seeded in a 96-well plate at 30% confluency. Then, the compounds of the invention were treated thereto at different concentrations. 72 hours later, WST-1 reagent was added thereto. One hour later, absorbance was measured at 450 nm by using a spectramax spectrophotometer.

SMILES	IC50 [1] [µM]	IC50 (TMD8 cells) [µM]
Cc1cccc(C)c1Nc1nn(C)c2nc(Nc3ccc(C4CCNCC4)cc3)ncc12 [Comparative Example 1, N^3-(2,6-dimethylphenyl)-1-methyl-N^6-(4-(piperidine-4-yl)phenyl)-1H-pyrazolo[3,4-d]pyrimidine-3,6-diamine, reference compound]	0.01	–
CC(=O)N1CCC(c2ccc(Nc3ncc4c(Nc5c(C)cccc5C)nn(C)c4n3)cc2)CC1 [Comparative Example 2, 1-(4-(4-(3-(2,6-dimethylphenylamino)-1-methyl-1H-pyrazolo[3,4-d]pyrimidine-6-ylamino)phenyl)piperidine-1-yl)ethaneone, reference compound]	0.02	–
Cn1nc(Nc2c(Cl)cccc2Cl)c2cnc(Nc3ccc4c(c3)CN(C(=O)C(F)(F)F)CC4)nc21 [Example 11, 1-(7-(3-(2,6-dichlorophenylamino)-1-methyl-1H-pyrazolo[3,4-d]pyrimidine-6-ylamino)-3,4-dihydroisoquinoline-2(1H)-yl)-2,2,2-trifluoroethaneone]	0.386	0.243
Cc1cccc(C)c1Nc1nn(C)c2nc(Nc3ccc4c(c3)CN(C)CC4)ncc12 [Example 17, N^3-(2,6-dimethylphenyl)-1-methyl-N^6-(2-methyl-1,2,3,4-tetrahydroisoquinoline-7-yl)-1H-pyrazolo[3,4-d]pyrimidine-3,6-diamine]	0.0012	0.036
Cc1cccc(C)c1Nc1nn(C)c2nc(Nc3ccc4c(c3)COCC4)ncc12 [Example 18, N^3(2,6-dimethylphenyl)-N^6 (isochroman-7-yl)-1-methyl-1H-pyrazolo[3,4-d]pyrimidine-3,6-diamine]	0.0005	0.134
Cc1cccc(C)c1Nc1n[nH]c2nc(Nc3ccc4c(c3)CNCC4)ncc12 [Example 19, N3-(2,6-dimethylphenyl)-N6-(1,2,3,4-tetrahydroisoquinoline-7-yl)-1H-pyrazolo[3,4-d]pyrimidine-3,6-diamine]	–	0.0494
Cc1cccc(C)c1Nc1nn(C)c2nc(Nc3ccc4c(c3)C(C)NCC4)ncc12 (centres unmarked) [Example 20, N^3-(2,6-dimethylphenyl)-1-methyl-N^6-(1-methyl-1,2,3,4-tetrahydroisoquinoline-7-yl)-1H-pyrazolo[3,4-d]pyrimidine-3,6-diamine]	0.0005	0.00828
Cc1cccc(C)c1Nc1nn(C)c2nc(Nc3ccc4c(c3)CN(C(C)C)CC4)ncc12 [Example 21, N-(2,6-dimethylphenyl)-N^6 (2-isopropyl-1,2,3,4-tetrahydroisoquinoline-7-yl)-1-methyl-1H-pyrazolo[3,4-d]pyrimidine-3,6-diamine]	0.0002	0.139
Cc1cccc(C)c1Nc1nn(C)c2nc(Nc3ccc4c(c3)CN(C(=O)CO)CC4)ncc12 [Example 22, 1-(7-(3-(2,6-dimethylphenylamino)-1-methyl-1H-pyrazolo[3,4-d]pyrimidine-6-ylamino)-3,4-dihydroisoquinoline-2(1H)-yl)-2-hydroxyethanone]	0.0004	0.0464
Cc1cccc(C)c1Nc1nn(C)c2nc(Nc3ccc4c(c3)CN(C(=O)C3CC3)CC4)ncc12 [Example 23, cyclopropyl(7-(3-(2,6-dimethylphenylamino)-1-methyl-1H-pyrazolo[3,4-d]pyrimidine-6-ylamino)-3,4-dihydroisoquinoline-2(1H)-yl)methanone]	0.0003	0.0879
Cc1cccc(C)c1Nc1nn(C(C)C)c2nc(Nc3ccc4c(c3)CNCC4)ncc12 [Example 27, N^3 (2,6-dimethylphenyl)-1-isopropyl-N6-(1,2,3,4-tetrahydroisoquinoline-7-yl)-1H-pyrazolo[3,4-d]pyrimidine-3,6-diamine]	–	0.0354
Cc1cc(C)c(Cl)c(Nc2nn(C)c3nc(Nc4ccc5c(c4)CNCC5)ncc23)c1 [Example 38, N^3-(2-chloro-3,5-dimethylphenyl)-1-methyl-N^6-(1,2,3,4-tetrahydroisoquinoline-7-yl)-1H-pyrazolo[3,4-d]pyrimidine-3,6-diamine]	–	0.832
Cn1nc(Nc2c(F)cccc2F)c2cnc(Nc3ccc4c(c3)CNCC4)nc21 [Example 42, N^3-(2,6-difluorophenyl)-1-methyl-N^6-(1,2,3,4-tetrahydroisoquinoline-7-yl)-1H-pyrazolo[3,4-d]pyrimidine-3,6-diamine]	–	0.397
Cc1ccc(C)c(Nc2nn(C)c3nc(Nc4ccc5c(c4)CNCC5)ncc23)c1 [Example 45, N^3-(2,5-dimethylphenyl)-1-methyl-N^6 (1,2,3,4-tetrahydroisoquinoline-7-yl)-1H-pyrazolo[3,4-d]pyrimidine-3,6-diamine]	–	0.72
Cc1ccc(C(=O)Nc2cccc(C(F)(F)F)c2)cc1Nc1nn(C)c2nc(Nc3ccc4c(c3)CNCC4)ncc12 [Example 52, 4-methyl-3-(1-methyl-6-(1,2,3,4-tetrahydroisoquinoline-7-ylamino)-1H-pyrazolo[3,4-d]pyrimidine-3-ylamino)-N-(3-(trifluoromethyl)phenyl)benzamide]	–	0.0832
Cc1ccc(NC(=O)Nc2cccc(C(F)(F)F)c2)cc1Nc1nn(C)c2nc(Nc3ccc4c(c3)CNCC4)ncc12 [Example 57, 1-(4-methyl-3-((1-methyl-6-((1,2,3,4-tetrahydroisoquinoline-7-yl)amino)-1H-pyrazolo[3,4-d]pyrimidine-3-yl)amino)phenyl)-3-(3-(trifluoromethyl)phenyl)urea]	–	0.221
Cc1cccc(C)c1Nc1nn(C)c2nc(Nc3ccc4c(c3)CN(C)C(C)(C)C4)ncc12 [Example 66, N3-(2,6-dimethylphenyl)-1-methyl-N 6-(2,3,3-trimethyl-1,2,3,4-tetrahydroisoquinoline-7-yl)-1H-pyrazolo[3,4-d]pyrimidine-3,6-diamine]	–	0.0285
Cc1cccc(C)c1Nc1nn(C)c2nc(Nc3ccc4c(c3)C(C)N(C)C(C)(C)C4)ncc12 (centres unmarked) [Example 67, N3-(2,6-dimethylphenyl)-1-methyl-N 6-(1,2,3,3-tetramethyl-1,2,3,4-tetrahydroisoquinoline-7-yl)-1H-pyrazolo[3,4-d]pyrimidine-3,6-diamine]	–	0.0236
CC(=O)N1Cc2cc(Nc3ncc4c(Nc5c(C)cccc5C)nn(C)c4n3)ccc2C(C)(C)C1 [Example 68, 1-(7-((3-((2,6-dimethylphenyl)amino)-1-methyl-1H-pyrazolo[3,4-d]pyrimidine-6-yl)amino)-4,4-dimethyl-3,4-dihydroisoquinoline-2(1H)-yl)ethane-1-one]	–	0.121
CC(=O)N1CCc2ccc(Nc3ncc4c(Nc5c(C)cccc5C)nn(C)c4n3)cc2C1C(C)C (centres unmarked) [Example 70, 1-(7-((3-((2,6-dimethylphenyl)amino)-1-methyl-1H-pyrazolo[3,4-d]pyrimidine-6-yl)amino)-1-isopropyl-3,4-dihydroisoquinoline-2(1H)-yl) ethane-1-one]	–	0.0245
CC(=O)N1Cc2cc(Nc3ncc4c(Nc5c(C)cccc5C)nn(C)c4n3)ccc2CC1(C)C [Example 71, 1-(7-((3-((2,6-dimethylphenyl)amino)-1-methyl-1H-pyrazolo[3,4-d]pyrimidine-6-yl)amino)-3,3-dimethyl-3,4-dihydroisoquinoline-2(1H)-yl)ethane-1-one]	–	0.114
CC(=O)N1Cc2ccc(Nc3ncc4c(Nc5c(C)cccc5C)nn(C)c4n3)cc2C1 [Example 72, 1-(5-((3-((2,6-dimethylphenyl)amino)-1-methyl-1H-pyrazolo[3,4-d]pyrimidine-6-yl)amino)isoindolin-2-yl)ethane-1-one]	–	0.266
Cc1cccc(C)c1Nc1nn(C)c2nc(Nc3ccc4c(c3)CN(C)C4)ncc12 [Example 74, N3-(2,6-dimethylphenyl)-1-methyl-N 6-(2-methylisoindolin-5-yl)-1H-pyrazolo[3,4-d]pyrimidine-3,6-diamine]	–	0.358
Cc1cccc(C)c1Nc1nn(C)c2nc(Nc3ccc4c(c3)CCCC4)ncc12 [Example 75, N3-(2,6-dimethylphenyl)-1-methyl-N 6-(5,6,7,8-tetrahydronaphthalen-2-yl)-1H-pyrazolo[3,4-d]pyrimidine-3,6-diamine]	–	0.667
C=CC(=O)Nc1ccc(Nc2ncc3c(Nc4c(C)cccc4C)nn(C)c3n2)cc1 [Example 76, N-(4-((3-((2,6-dimethylphenyl)amino)-1-methyl-1H-pyrazolo[3,4-d]pyrimidine-6-yl)amino)phenyl)acrylamide]	–	0.0752
Cc1cccc(C)c1Nc1nn(C)c2nc(Nc3ccc4c(c3)C(=O)NCC4)ncc12 [Example 77, 7-((3-((2,6-dimethylphenyl)amino)-1-methyl-1H-pyrazolo[3,4-d]pyrimidine-6-yl)amino)-3,4-dihydroisoquinoline-1(2H)-one]	–	0.146
COCCOc1cc(C)c(Nc2nn(C)c3nc(Nc4ccc5c(c4)C(C(C)C)NCC5)ncc23)c(C)c1 (centres unmarked) [Example 78, N6-(1-isopropyl-1,2,3,4-tetrahydroisoquinoline-7-yl)-N 3-(4-(2-methoxyethoxy)-2,6-dimethylphenyl)-1-methyl-1H-pyrazolo[3,4-d]pyrimidine-3,6-diamine]	–	0.0262
COCCOc1cc(C)c(Nc2nn(C)c3nc(Nc4ccc5c(c4)C(C)(C)NCC5)ncc23)c(C)c1 [Example 79, N6-(1,1-dimethyl-1,2,3,4-tetrahydroisoquinoline-7-yl)-N 3-(4-(2-methoxyethoxy)-2,6-dimethylphenyl)-1-methyl-1H-pyrazolo[3,4-d]pyrimidine-3,6-diamine]	–	0.013
